Biological target: T1, bacteriophage T4 DNA polymerase (Enterobacteria phage T4, UniProt P04415)
T1 construct: made in house
T1 sequence (P04415 1-898): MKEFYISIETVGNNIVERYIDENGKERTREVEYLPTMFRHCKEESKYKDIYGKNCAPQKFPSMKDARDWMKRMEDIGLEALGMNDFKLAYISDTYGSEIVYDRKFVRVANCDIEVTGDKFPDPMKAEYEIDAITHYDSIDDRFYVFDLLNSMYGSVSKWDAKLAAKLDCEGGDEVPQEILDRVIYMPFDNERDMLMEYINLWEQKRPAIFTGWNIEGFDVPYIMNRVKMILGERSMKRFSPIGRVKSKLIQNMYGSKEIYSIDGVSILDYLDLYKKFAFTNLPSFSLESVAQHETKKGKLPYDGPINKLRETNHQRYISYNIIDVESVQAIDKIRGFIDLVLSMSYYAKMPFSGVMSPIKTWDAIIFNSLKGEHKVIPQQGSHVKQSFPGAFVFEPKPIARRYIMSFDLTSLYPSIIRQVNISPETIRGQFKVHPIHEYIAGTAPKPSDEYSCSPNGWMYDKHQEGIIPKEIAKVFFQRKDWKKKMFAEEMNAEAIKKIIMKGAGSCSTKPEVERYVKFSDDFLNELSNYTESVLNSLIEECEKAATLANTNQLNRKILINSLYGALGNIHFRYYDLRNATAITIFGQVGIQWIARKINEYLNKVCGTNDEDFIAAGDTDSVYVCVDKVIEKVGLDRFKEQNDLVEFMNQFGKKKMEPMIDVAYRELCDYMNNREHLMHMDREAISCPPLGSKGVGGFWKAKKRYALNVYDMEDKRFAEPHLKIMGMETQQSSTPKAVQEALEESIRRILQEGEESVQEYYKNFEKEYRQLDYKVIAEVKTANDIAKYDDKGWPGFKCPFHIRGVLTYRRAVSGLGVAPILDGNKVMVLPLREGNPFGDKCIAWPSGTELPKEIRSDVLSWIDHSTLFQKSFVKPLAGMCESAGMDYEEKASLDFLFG
Experiment: Counter-screen against bacteriophage T4 DNA polymerase
Assay type: biochemical
Settings: for % inhibition T4 10' 2.5 / % inhibition T4 10' 5 / % inhibition T4 10' 10 / % inhibition T4 10' 20 / % inhibition T4 10' 40 / % inhibition T4 10' 80: read at 10'; for % inhibition T4 10' 2.5 / % inhibition T4 70' 2.5 / % inhibition T4 130' 2.5 / % inhibition T4 40' 2.5 / % inhibition T4 90' 2.5 / % inhibition T4 180' 2.5: concentration 2.5; for % inhibition T4 70' 2.5 / % inhibition T4 70' 5 / % inhibition T4 70' 10 / % inhibition T4 70' 20 / % inhibition T4 70' 40 / % inhibition T4 70' 80: read at 70'; for % inhibition T4 130' 2.5 / % inhibition T4 130' 5 / % inhibition T4 130' 10 / % inhibition T4 130' 20 / % inhibition T4 130' 40 / % inhibition T4 130' 80: read at 130'; for % inhibition T4 40' 2.5 / % inhibition T4 40' 5 / % inhibition T4 40' 10 / % inhibition T4 40' 20 / % inhibition T4 40' 40 / % inhibition T4 40' 80: read at 40'; for % inhibition T4 90' 2.5 / % inhibition T4 90' 5 / % inhibition T4 90' 10 / % inhibition T4 90' 20 / % inhibition T4 90' 40 / % inhibition T4 90' 80: read at 90'; for % inhibition T4 180' 2.5 / % inhibition T4 180' 5 / % inhibition T4 180' 10 / % inhibition T4 180' 20 / % inhibition T4 180' 40 / % inhibition T4 180' 80: read at 180'
Procedure, shortened: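 IC50 values come from dose-response testing of each compound against T4 DNA polymerase. This B-family polymerase was purified in-house and used as the counter-screen.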

SMILES: CN(C)S(=O)(=O)Oc1ccc(-c2noc(-c3ccc(Oc4cc(Cl)cc(Cl)c4)o3)n2)cc1 [KU0263859]
- % inhibition T4 10' (DRC-2, concentration 5): 17%
- % inhibition T4 10' (DRC-2, concentration 10): 35%
- % inhibition T4 10' (DRC-2, concentration 20): 35%
- % inhibition T4 40' (DRC-2, concentration 5): 17%
- % inhibition T4 40' (DRC-2, concentration 20): 38%
- % inhibition T4 40' (DRC-2, concentration 40): 43%
- % inhibition T4 40' (DRC-2, concentration 80): 43%
- % inhibition T4 90' (DRC-2, 90', concentration 20): 35%
- % inhibition T4 180' (DRC-2, concentration 40): 38%
- % inhibition T4 180' (DRC-2, concentration 80): 43%

SMILES: O=C(c1ccccc1)N1CCc2c(nc3cc(-c4ccccc4)[nH]n3c2=O)C1 [Molecule 30, O=C(N1CCc2c(C1)nc1n(c2=O)[nH]c(c1)c1ccccc1)c1ccccc1]
- % inhibition T4 10' 2.5 (DRC-1): -1.603%
- % inhibition T4 10' 5 (DRC-1, concentration 5): -4.492%
- % inhibition T4 10' 10 (DRC-1, concentration 10): -6.45%
- % inhibition T4 10' 20 (DRC-1, concentration 20): 0.1503%
- % inhibition T4 10' 40 (DRC-1, concentration 40): 0.9641%
- % inhibition T4 10' 80 (DRC-1, concentration 80): -0.6394%
- % inhibition T4 70' 2.5 (DRC-1): -4.009%
- % inhibition T4 70' 5 (DRC-1, concentration 5): -7.504%
- % inhibition T4 70' 10 (DRC-1, concentration 10): -7.7135%
- % inhibition T4 70' 20 (DRC-1, concentration 20): -3.401%
- % inhibition T4 70' 40 (DRC-1, concentration 40): -0.06602%
- % inhibition T4 70' 80 (DRC-1, concentration 80): -5.584%
- % inhibition T4 130' 2.5 (DRC-1): -6.3102%
- % inhibition T4 130' 5 (DRC-1, concentration 5): -10.6574%
- % inhibition T4 130' 10 (DRC-1, concentration 10): -9.449%
- % inhibition T4 130' 20 (DRC-1, concentration 20): -6.067%
- % inhibition T4 130' 40 (DRC-1, concentration 40): -1.0022%
- % inhibition T4 130' 80 (DRC-1, concentration 80): -9.233%
- % inhibition T4 10' 2.5 (DRC-2): 1.68%
- % inhibition T4 10' 5 (DRC-2, concentration 5): -13%
- % inhibition T4 10' 10 (DRC-2, concentration 10): -11%
- % inhibition T4 10' 20 (DRC-2, concentration 20): -20%
- % inhibition T4 10' 40 (DRC-2, concentration 40): -17%
- % inhibition T4 10' 80 (DRC-2, concentration 80): -22%
- % inhibition T4 40' 2.5 (DRC-2): 1.68%
- % inhibition T4 40' 5 (DRC-2, concentration 5): -13%
- % inhibition T4 40' 10 (DRC-2, concentration 10): -11%
- % inhibition T4 40' 20 (DRC-2, concentration 20): -20%
- % inhibition T4 40' 40 (DRC-2, concentration 40): -17%
- % inhibition T4 40' 80 (DRC-2, concentration 80): -22%
- % inhibition T4 90' 2.5 (DRC-2): 1%
- % inhibition T4 90' 5 (DRC-2, concentration 5): -13%
- % inhibition T4 90' 10 (DRC-2, concentration 10): -10%
- % inhibition T4 90' 20 (DRC-2, concentration 20): -17%
- % inhibition T4 90' 40 (DRC-2, concentration 40): -15%
- % inhibition T4 90' 80 (DRC-2, concentration 80): -21%
- % inhibition T4 180' 2.5 (DRC-2): -2.79%
- % inhibition T4 180' 5 (DRC-2, concentration 5): -16%
- % inhibition T4 180' 10 (DRC-2, concentration 10): -13%
- % inhibition T4 180' 20 (DRC-2, concentration 20): -19%
- % inhibition T4 180' 40 (DRC-2, concentration 40): -15%
- % inhibition T4 180' 80 (DRC-2, concentration 80): -21%

SMILES: COc1ccc(C2CC(c3ccc(Cl)cc3Cl)Nc3nc(N)nn32)cc1OC (stereo not shown) [Molecule 43, COc1cc(ccc1OC)C1CC(Nc2n1nc(n2)N)c1ccc(cc1Cl)Cl]
- % inhibition T4 10' 2.5 (DRC-1): 8.55%
- % inhibition T4 10' 5 (DRC-1, concentration 5): 0.398%
- % inhibition T4 10' 10 (DRC-1, concentration 10): 3.64%
- % inhibition T4 10' 20 (DRC-1, concentration 20): 1.67%
- % inhibition T4 10' 40 (DRC-1, concentration 40): 9%
- % inhibition T4 10' 80 (DRC-1, concentration 80): 12%
- % inhibition T4 70' 2.5 (DRC-1): 8%
- % inhibition T4 70' 5 (DRC-1, concentration 5): 0.633%
- % inhibition T4 70' 10 (DRC-1, concentration 10): 1.77%
- % inhibition T4 70' 20 (DRC-1, concentration 20): 0.0404%
- % inhibition T4 70' 40 (DRC-1, concentration 40): 8%
- % inhibition T4 70' 80 (DRC-1, concentration 80): 9%
- % inhibition T4 130' 2.5 (DRC-1): 7%
- % inhibition T4 130' 5 (DRC-1, concentration 5): -0.436%
- % inhibition T4 130' 10 (DRC-1, concentration 10): 0.362%
- % inhibition T4 130' 20 (DRC-1, concentration 20): -1.3%
- % inhibition T4 130' 40 (DRC-1, concentration 40): 6%
- % inhibition T4 130' 80 (DRC-1, concentration 80): 8.47%
- % inhibition T4 10' 2.5 (DRC-2): 3.49%
- % inhibition T4 10' 5 (DRC-2, concentration 5): -2.24%
- % inhibition T4 10' 10 (DRC-2, concentration 10): -1.16%
- % inhibition T4 10' 20 (DRC-2, concentration 20): -2.26%
- % inhibition T4 10' 40 (DRC-2, concentration 40): 0.721%
- % inhibition T4 10' 80 (DRC-2, concentration 80): 0.788%
- % inhibition T4 40' 2.5 (DRC-2): 2.64%
- % inhibition T4 40' 5 (DRC-2, concentration 5): -2.79%
- % inhibition T4 40' 10 (DRC-2, concentration 10): -1.88%
- % inhibition T4 40' 20 (DRC-2, concentration 20): -2.36%
- % inhibition T4 40' 40 (DRC-2, concentration 40): 1%
- % inhibition T4 40' 80 (DRC-2, concentration 80): 0.512%
- % inhibition T4 90' 2.5 (DRC-2): 2%
- % inhibition T4 90' 5 (DRC-2, concentration 5): -3%
- % inhibition T4 90' 10 (DRC-2, concentration 10): -0.792%
- % inhibition T4 90' 20 (DRC-2, concentration 20): -3%
- % inhibition T4 90' 40 (DRC-2, concentration 40): -0.348%
- % inhibition T4 90' 80 (DRC-2, concentration 80): -1%
- % inhibition T4 180' 2.5 (DRC-2): -2.47%
- % inhibition T4 180' 5 (DRC-2, concentration 5): -8%
- % inhibition T4 180' 10 (DRC-2, concentration 10): -5%
- % inhibition T4 180' 20 (DRC-2, concentration 20): -7%
- % inhibition T4 180' 40 (DRC-2, concentration 40): -4%
- % inhibition T4 180' 80 (DRC-2, concentration 80): -2.58%
